Assay results taken from ChEMBL document CHEMBL1145227, “5-Amidinobenzo[b]thiophenes as dual inhibitors of factors IXa and Xa” (Bioorg Med Chem Lett, 2005).

Experiments:
Coagulation factor X = Coagulation factor X (Homo sapiens, UniProt P00742); assay: Inhibitory constant against human purified Coagulation factor Xa (fXa)
Coagulation factor IX = Coagulation factor IX (Homo sapiens, UniProt P00740); assay: Inhibitory constant against human purified Coagulation factor IXa (fIXa)
Trypsin = Trypsin (Homo sapiens, UniProt P07477+P07478+P35030); assay: Inhibitory constant against human trypsin; assay type: protein assay
Prothrombin = Prothrombin (Homo sapiens, UniProt P00734); assay: Inhibitory constant against human thrombin

Coagulation factor X, sequence (P00742 41-179 limits assumed): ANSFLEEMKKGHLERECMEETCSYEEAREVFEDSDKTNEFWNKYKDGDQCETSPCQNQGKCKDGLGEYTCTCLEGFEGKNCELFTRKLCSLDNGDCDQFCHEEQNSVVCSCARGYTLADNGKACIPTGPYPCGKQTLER
Coagulation factor X, sequence (P00742 235-488 limits assumed): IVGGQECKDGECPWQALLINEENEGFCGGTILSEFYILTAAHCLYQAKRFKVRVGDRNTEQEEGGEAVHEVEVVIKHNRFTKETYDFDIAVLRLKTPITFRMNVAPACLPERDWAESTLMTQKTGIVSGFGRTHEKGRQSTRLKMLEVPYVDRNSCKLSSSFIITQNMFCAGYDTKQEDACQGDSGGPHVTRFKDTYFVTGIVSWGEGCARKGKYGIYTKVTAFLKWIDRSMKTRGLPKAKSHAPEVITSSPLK
Coagulation factor IX, sequence (P00740 47-191 limits assumed): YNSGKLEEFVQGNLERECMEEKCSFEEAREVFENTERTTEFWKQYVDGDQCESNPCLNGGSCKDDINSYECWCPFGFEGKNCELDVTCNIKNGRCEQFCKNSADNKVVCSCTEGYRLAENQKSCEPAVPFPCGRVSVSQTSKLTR
Coagulation factor IX, sequence (P00740 227-461 limits assumed): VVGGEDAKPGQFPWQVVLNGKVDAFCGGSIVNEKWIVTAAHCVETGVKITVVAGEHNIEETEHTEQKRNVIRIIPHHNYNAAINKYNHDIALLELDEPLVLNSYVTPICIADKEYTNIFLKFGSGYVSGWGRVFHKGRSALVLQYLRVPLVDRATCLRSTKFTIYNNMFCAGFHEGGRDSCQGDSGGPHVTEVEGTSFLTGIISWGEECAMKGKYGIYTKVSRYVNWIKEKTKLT

| SMILES | Ki (Coagulation factor X) | Ki (Coagulation factor IX) | Ki (Trypsin) | Ki (Prothrombin) |
| --- | --- | --- | --- | --- |
| N#Cc1ccc(NC(=O)C(Cc2ccccc2)c2csc3ccc(C(=N)N)cc23)cc1 (centres undefined) | > 8000 nM | 1730 nM | – | – |
| CCOC(=O)[C@@H]1CCCCC1NC(=O)C(Cc1ccccc1)c1coc2ccc(C(=N)N)cc12 (some centres undefined) | 270 nM | 1190 nM | > 4200 nM | – |
| N=C(N)c1ccc2scc([C@@H](Cc3ccccc3)C(=O)Nc3ccc4ncsc4c3)c2c1 | 2700 nM | 480 nM | – | – |
| COC(=O)[C@H]1CCCCC1NNC(=O)C(Cc1ccccc1)c1csc2ccc(C(=N)N)cc12 (some centres undefined) | 300 nM | 310 nM | – | – |
| N=C(N)c1ccc2scc([C@H](Cc3ccccc3)C(=O)NC3CCCC[C@H]3C(=O)NCc3ccccc3)c2c1 (some centres undefined) | > 9000 nM | > 32000 nM | – | – |
| N=C(N)c1ccc2scc(C(Cc3ccccc3)C(=O)Nc3ccc4ncsc4c3)c2c1 (centres undefined) | > 8000 nM | 780 nM | – | – |
| N=C(N)c1ccc2scc(C(Cc3cccc4ccccc34)C(=O)Nc3ccc(-n4cnc5ccccc54)cc3)c2c1.O=C(O)C(F)(F)F (centres undefined) | 740 nM | 230 nM | 3900 nM | > 6300 nM |
| CC1CCC(NC(=O)C(Cc2ccccc2)c2csc3ccc(C(=N)N)cc23)CC1 (centres undefined) | 3240 nM | 580 nM | – | – |
| N=C(N)c1ccc2scc([C@H](Cc3ccccc3)C(=O)NC3CCCC[C@H]3C(=O)O)c2c1 (some centres undefined) | 200 nM | 3500 nM | – | – |
| N=C(N)c1ccc2scc(C(Cc3ccccc3)C(=O)Nc3ccc(-n4cnc5ccccc54)cc3)c2c1.O=C(O)C(F)(F)F (centres undefined) | 120 nM | 98 nM | 1020 nM | > 6300 nM |
| COC(=O)[C@@H]1CCCCC1NC(=O)C(Cc1ccccc1)c1c[nH]c2ccc(C(=N)N)cc12 (some centres undefined) | 19 nM | 340 nM | 1500 nM | – |
| COC(=O)[C@@H]1CCCCC1NNC(=O)C(Cc1ccccc1)c1csc2ccc(C(=N)N)cc12 (some centres undefined) | 90 nM | 500 nM | – | – |
| N=C(N)c1ccc2scc(C(CC(=O)Nc3ccc(-n4cnc5ccccc54)cc3)Cc3ccccc3)c2c1.O=C(O)C(F)(F)F (centres undefined) | 280 nM | 1250 nM | > 4200 nM | 4200 nM |
| N=C(N)c1ccc2scc(C3(C(=O)Nc4ccc(-n5cnc6ccccc65)cc4)CC3)c2c1.O=C(O)C(F)(F)F | 22 nM | 4900 nM | 60 nM | 390 nM |
| CCOC(=O)[C@@H]1CCCCC1NC(=O)C(Cc1ccccc1)C1=CS(=O)(=O)c2ccc(C(=N)N)cc21 (some centres undefined) | > 9000 nM | 8530 nM | > 4200 nM | – |
| N=C(N)c1ccc2scc(C(Cc3ccc(N)cc3)C(=O)Nc3ccc(-n4cnc5ccccc54)cc3)c2c1.O=C(O)C(F)(F)F (centres undefined) | 47 nM | 74 nM | > 4200 nM | 4200 nM |
| N=C(N)c1ccc2[nH]cc(C(Cc3ccccc3)C(=O)Nc3ccc(-n4cnc5ccccc54)cc3F)c2c1.O=C(O)C(F)(F)F (centres undefined) | – | – | 340 nM | 13000 nM |

| SMILES | Ki (Coagulation factor X) | Ki (Coagulation factor IX) | Ki (Trypsin) | Ki (Prothrombin) |
| --- | --- | --- | --- | --- |
| N=C(N)c1ccc2scc(C(Cc3ccccc3)C(=O)Nc3ccc(-n4ccc(C(F)(F)F)n4)cc3)c2c1 (centres undefined) | 410 nM | 130 nM | – | – |
| CCNC(=O)[C@@H]1CCCCC1NC(=O)[C@@H](Cc1ccccc1)c1csc2ccc(C(=N)N)cc12 (some centres undefined) | 130 nM | 430 nM | – | – |
| CCC(C(=O)Nc1ccc(-n2cnc3ccccc32)cc1)c1csc2ccc(C(=N)N)cc12.O=C(O)C(F)(F)F (centres undefined) | 71 nM | 220 nM | 270 nM | > 270 nM |
| COC(=O)[C@H]1CCCCC1NNC(=O)[C@H](Cc1ccccc1)c1csc2ccc(C(=N)N)cc12 (some centres undefined) | 270 nM | 280 nM | – | – |
| N=C(N)c1ccc2[nH]cc(C(Cc3ccccc3)C(=O)Nc3ccc(-c4ccccc4S(N)(=O)=O)cc3)c2c1 (centres undefined) | – | – | 150 nM | 600 nM |
| N=C(N)c1ccc2[nH]cc(C(Cc3ccc(N)cc3)C(=O)Nc3ccc(-n4cnc5ccccc54)cc3)c2c1.O=C(O)C(F)(F)F (centres undefined) | – | – | > 4200 nM | 4200 nM |
| CCOC(=O)[C@@H]1CCCCC1NC(=O)[C@@H](Cc1ccccc1)c1cccc2ccc(C(=N)N)cc12 (some centres undefined) | 530 nM | 240 nM | > 4200 nM | – |
| COC(=O)[C@@H]1CCCCC1NC(=O)[C@@H](Cc1ccccc1)c1csc2ccc(C(=N)N)cc12 (some centres undefined) | 120 nM | 140 nM | – | – |
| Cc1ccc(F)cc1NC(=O)C(Cc1ccccc1)c1csc2ccc(C(=N)N)cc12 (centres undefined) | > 8000 nM | 960 nM | – | – |
| N=C(N)c1ccc2scc(C(Cc3ccccc3)C(=O)Nc3ccc(S(=O)(=O)Nc4ccc(Cl)nn4)cc3)c2c1 (centres undefined) | 5360 nM | 930 nM | – | – |
| N=C(N)c1ccc2scc(C(Cc3ccccc3)C(=O)Nc3ccc(-n4cnc(-c5ccccc5)c4)cc3)c2c1.O=C(O)C(F)(F)F (centres undefined) | 2020 nM | 390 nM | > 4200 nM | > 6300 nM |
| N=C(N)c1ccc2scc(C(Cc3ccccc3)C(=O)Nc3ccc(Oc4ccccc4)cc3)c2c1 (centres undefined) | 450 nM | 250 nM | – | – |
| CCOC(=O)[C@@H]1CCCCC1NC(=O)[C@@H](Cc1ccccc1)c1csc2ccc(C(=N)N)cc12 (some centres undefined) | 180 nM | 120 nM | – | – |
| N=C(N)c1ccc2scc([C@H](Cc3ccccc3)C(=O)NC3CCCC[C@H]3C(=O)NCC(N)=O)c2c1 (some centres undefined) | 65 nM | 280 nM | – | – |
| COC(=O)[C@H]1CCCCC1NNC(=O)[C@@H](Cc1ccccc1)c1csc2ccc(C(=N)N)cc12 (some centres undefined) | > 9000 nM | 41300 nM | – | – |
| N=C(N)c1ccc2scc(C(Cc3ccccc3)C(=O)Nc3ccc4ncsc4c3)c2c1 (single isomer, unassigned) | 5700 nM | 14200 nM | – | – |
